Where two headings read alike, the source gives them in different places.
Experiments:
[1] = tested on: TCR-transfectant cells specific for DQ2.5-glia-ω2; assay: Inhibition by primary amines of activation of DQ2.5-glia-ω2-specific T cells by TG2-specific B cells, IL-2 ELISA; assay type: cell-based; settings: for IC50: 5 µM N-ω-gliadin 34-mer, TG2, CaCl2, amine 0-1000 µM, IL-2 ELISA
From the text: (§1) Murine A20 B lymphoma cells engineered to express either the celiac patient‐derived TG2‐specific BCR 679‐14‐E06 or the non‐TG2‐specific BCR 693‐2‐F02 as human IgD are previously described. For B‐cell/T‐cell collaboration assays, we used A20 BCR transfectants also transduced to express HLA‐DQ2.5 [27]. Murine BW58α^–β^– cells were retrovirally transduced to express human CD4 as well as the celiac patient‐derived gluten‐specific TCR from a DQ2.5‐glia‐γ1‐reactive T‐cell clone (TCC 4.32) as previously described. The generation of TCR transfectants expressing DQ2.5‐glia‐α2‐reactive TCR (TCC 364.14) and DQ2.5‐glia‐ω2‐reactive TCR (clone 737.30) have been described previously.
The B‐cell/T‐cell collaboration assays were set up as previously described. To compare the uptake and presentation of different gluten peptides to T cells, A20 cells (5 mill/mL) expressing the TG2‐specific BCR (679‐14‐E06) and HLA DQ2.5 were incubated with recombinant TG2 (final 3 µg/mL) and varying amounts of N‐α‐gliadin 20‐mer, N‐ω‐gliadin 19‐mer, or N‐γ‐gliadin 21‐mer in RPMI supplemented with 2 mM CaCl2. After a 30 min incubation at 37°C the cells were washed with 1% FCS/RPMI and resuspended in 5% FCS/RPMI to give a final 1.5 million cells/mL (150 000/well) followed by 2 h incubation at 37°C. Next, TCR‐transfectant cells specific for either DQ2.5‐glia‐α2, DQ2.5‐glia‐ω2, or DQ2.5‐glia‐γ1 were added (25 000/well), followed by overnight incubation at 37°C. The next day, IL‐2 concentration was measured in the culture supernatant by ELISA as previously described. The responsiveness of different TCR transfectants was assessed in the same way, but without the 30 min incubation with TG2, and using the synthetic deamidated peptides (D‐α‐gliadin 20‐mer, D‐ω‐gliadin 17‐mer, and D‐γ‐gliadin 21‐mer). To assess how TG2 secondary substrate affects peptide uptake and presentation to T cells, TG2‐specific A20 cells expressing DQ2.5 were incubated with TG2, CaCl2, 5 µM N‐ω‐gliadin 34‐mer, or 5 µM N‐α‐gliadin 33‐mer in the presence of primary amines at increasing concentrations (0‐1000 µM), before the addition of TCR‐transfectant cells specific for the DQ2.5‐glia‐α2 or DQ2.5‐glia‐ω2 epitopes. The dose‐response curve fitting to find IC50 was done using the “[Inhibitor] vs. response” equation in GraphPad Prism 8.3.0. To examine whether primary amines directly affect the B cells, TG2‐specific A20 cell expressing DQ2.5 were incubated with primary amines for 30 min and washed, before addition of 2 µM D‐ω‐gliadin 34‐mer, followed by incubation with DQ2.5‐glia‐ω2 TCR transfectants.

[2] = tested on: TG2:gluten complexes uptake by TG2-specific B cells (A20, BCR 679-14-E06); assay: Inhibition by primary amines of TG2:gluten complex uptake by TG2-specific B cells, flow cytometry; assay type: cell-based, Murine A20 B lymphoma; recombinant human TG2; settings: for IC50: B-cell
From the text: as §1
B‐cell uptake of gluten peptides was measured essentially as previously described. The following 9‐mer peptides were compared: FITC‐α2, FITC‐ω2, FITC‐γ1, and FITC‐γ3. In brief, A20 cells (300 000/well) expressing TG2‐specific (679‐14‐E06) or non‐TG2 specific BCR (693‐2‐F02) were incubated with recombinant TG2 (final 3 µg/mL), 5 µM FITC peptide, and 2 mM CaCl2 in RPMI at a final volume of 50 µL. Following incubation at 37°C, the TG2 enzymatic activity was quenched by the addition of 100 µL 2 mM EDTA/RPMI at specific timepoints. Cells were washed, fixed in 2% methanol‐free formaldehyde (Invitrogen), resuspended in 2% fetal calf serum (FCS)/PBS, and analyzed by flow cytometry (Attune NxT Flow Cytometer, Thermo Scientific). For each peptide, a delta MFI was calculated by subtracting MFI from non‐TG2 specific A20 cell (unspecific binding) from MFI of TG2‐specific A20 cells. Delta MFI was normalized for each experiment by dividing by the highest delta value per experiment. To assess the contribution and uptake of isopeptide‐linked TG2:gluten complexes, TG2 (3 µg/mL) and FITC‐labelled peptides (5 µM) were preincubated in RPMI with 2 mM CaCl2 at 37°C for 30 min before addition of A20 cells followed by 30 min incubation at 37°C. To examine the effect of TG2 secondary substrates on peptide uptake, the primary amines spermine (Sigma–Aldrich) and biotinylated cadaverine (5‐biotinamido‐pentylamine; 5‐BP, Pierce) were added to the reaction mixture (0.1–1000 µM final concentration), followed by 10 min incubation at 37°C and flow cytometry analysis. The dose‐response curve fitting to find IC50 was done using the “[Inhibitor] vs. response” equation in GraphPad Prism 8.3.0. Of note, the presence of Lysine HCl in RPMI medium represents an experimental constant in our assays that is not accounted for when calculating the competitive effect of amine.

[3] = DQ2.5-glia-ω2, replicate Figure S5A
[4] = DQ2.5-glia-ω2, replicate Figure S5B
[5] = logIC50, DQ2.5-glia-ω2, Figure 5
[6] = logIC50, DQ2.5-glia-ω2, replicate Figure S5A
[7] = logIC50, DQ2.5-glia-ω2, replicate Figure S5B
[8] = 10 min, inhibition of FITC-α2 (5 µM) uptake, TG2 3 µg/mL, 2 mM CaCl2, RPMI, 37°C 10 min, Figure 4, read-out: IC50
[9] = 10 min, inhibition of FITC-α2 (5 µM) uptake, TG2 3 µg/mL, 2 mM CaCl2, RPMI, 37°C 10 min, mean, read-out: IC50
[10] = 10 min, inhibition of FITC-α2 (5 µM) uptake, TG2 3 µg/mL, 2 mM CaCl2, RPMI, 37°C 10 min, replicate Figure S4 A, read-out: IC50
[11] = 10 min, inhibition of FITC-α2 (5 µM) uptake, TG2 3 µg/mL, 2 mM CaCl2, RPMI, 37°C 10 min, replicate Figure S4 B, read-out: IC50
[12] = 10 min, inhibition of FITC-ω2 (5 µM) uptake, TG2 3 µg/mL, 2 mM CaCl2, RPMI, 37°C 10 min, Figure 4, read-out: IC50
[13] = 10 min, inhibition of FITC-ω2 (5 µM) uptake, TG2 3 µg/mL, 2 mM CaCl2, RPMI, 37°C 10 min, mean (spermine: Figure S4 B not included), read-out: IC50
[14] = 10 min, inhibition of FITC-ω2 (5 µM) uptake, TG2 3 µg/mL, 2 mM CaCl2, RPMI, 37°C 10 min, replicate Figure S4 A, read-out: IC50
[15] = FITC 9-mer native gluten peptides, average IC50 values, Table S1, read-out: IC50, inhibition of FITC-9-mer peptide uptake (average values)
[16] = inhibition of FITC-α2 uptake, Figure 4
[17] = inhibition of FITC-α2 uptake, mean
[18] = inhibition of FITC-α2 uptake, replicate Figure S4 B
[19] = inhibition of FITC-ω2 uptake, Figure 4
[20] = inhibition of FITC-ω2 uptake, mean
[21] = inhibition of FITC-ω2 uptake, replicate Figure S4 A
[22] = inhibition of FITC-ω2 uptake, replicate Figure S4 B
[23] = logIC50, inhibition of FITC-α2 uptake, Figure 4
[24] = logIC50, inhibition of FITC-α2 uptake, mean
[25] = logIC50, inhibition of FITC-α2 uptake, replicate Figure S4 A
[26] = logIC50, inhibition of FITC-α2 uptake, replicate Figure S4 B
[27] = logIC50, inhibition of FITC-γ1 uptake, Figure 4
[28] = logIC50, inhibition of FITC-γ1 uptake, mean
[29] = logIC50, inhibition of FITC-γ1 uptake, replicate Figure S4 C
[30] = logIC50, inhibition of FITC-ω2 uptake, Figure 4
[31] = logIC50, inhibition of FITC-ω2 uptake, mean
[32] = logIC50, inhibition of FITC-ω2 uptake, replicate Figure S4 A
[33] = logIC50, inhibition of FITC-ω2 uptake, replicate Figure S4 B

NCCCNCCCCNCCCN [spermine]
IC50 ([1]; DQ2.5-glia-ω2, Figure 5): 55.1 µM
IC50 ([1]; DQ2.5-glia-ω2, mean): 27.5 µM
IC50 [1, 3]: 18.4 µM
IC50 [1, 4]: 9.13 µM
logIC50 ([1]; DQ2.5-glia-ω2, Figure 5): 1.74
logIC50 ([1]; DQ2.5-glia-ω2, mean): 1.32
logIC50 [1, 3]: 1.26
logIC50 [1, 4]: 0.960
log 95% CI lower limit [1, 5]: 1.50
log 95% CI upper limit [1, 5]: 1.99
log 95% CI lower limit ([1]; logIC50, DQ2.5-glia-ω2, mean): 1.04
log 95% CI upper limit ([1]; logIC50, DQ2.5-glia-ω2, mean): 1.58
log 95% CI lower limit [1, 6]: 1.03
log 95% CI upper limit [1, 6]: 1.50
log 95% CI lower limit [1, 7]: 0.610
log 95% CI upper limit [1, 7]: 1.26
IC50 [2, 8]: 29.3 µM
IC50 [2, 9]: 66.1 µM
IC50 [2, 10]: 47.6 µM
IC50 [2, 11]: 121 µM
IC50 ([2]; 10 min, inhibition of FITC-γ1 (5 µM) uptake, TG2 3 µg/mL, 2 mM CaCl2, RPMI, 37°C 10 min, Figure 4, read-out: IC50): 45.3 µM
IC50 ([2]; 10 min, inhibition of FITC-γ1 (5 µM) uptake, TG2 3 µg/mL, 2 mM CaCl2, RPMI, 37°C 10 min, mean, read-out: IC50): 31.9 µM
IC50 ([2]; 10 min, inhibition of FITC-γ1 (5 µM) uptake, TG2 3 µg/mL, 2 mM CaCl2, RPMI, 37°C 10 min, replicate Figure S4 C, read-out: IC50): 18.7 µM
IC50 [2, 12]: 14 µM
IC50 [2, 13]: 26.1 µM
IC50 [2, 14]: 38.2 µM
IC50 [2, 15]: 26 to 72 µM
inhibition of FITC-9-mer uptake, in words ([2]; TG2 3 µg/mL, FITC peptide 5 µM, 2 mM CaCl2, 37°C 10 min, Figure 4, Figure S4): effectively inhibited uptake
logIC50 [2, 16]: 1.47
logIC50 [2, 17]: 1.74
logIC50 ([2]; inhibition of FITC-α2 uptake, replicate Figure S4 A): 1.68
logIC50 [2, 18]: 2.08
logIC50 ([2]; inhibition of FITC-γ1 uptake, Figure 4): 1.66
logIC50 ([2]; inhibition of FITC-γ1 uptake, mean): 1.46
logIC50 ([2]; inhibition of FITC-γ1 uptake, replicate Figure S4 C): 1.27
logIC50 [2, 19]: 1.15
logIC50 [2, 20]: 1.36
logIC50 [2, 21]: 1.58
logIC50 [2, 22]: 16.4
log 95% CI lower limit [2, 23]: 0.911
log 95% CI upper limit [2, 23]: 2.19
log 95% CI lower limit [2, 24]: 1.31
log 95% CI upper limit [2, 24]: 2.23
log 95% CI lower limit [2, 25]: 1.49
log 95% CI upper limit [2, 25]: 1.864
log 95% CI lower limit [2, 26]: 1.53
log 95% CI upper limit [2, 26]: 2.63
log 95% CI lower limit [2, 27]: 1.20
log 95% CI upper limit [2, 27]: 2.08
log 95% CI lower limit [2, 28]: 1.02
log 95% CI upper limit [2, 28]: 2.0
log 95% CI lower limit [2, 29]: 0.84
log 95% CI upper limit [2, 29]: 1.92
log 95% CI lower limit [2, 30]: 0.93
log 95% CI upper limit [2, 30]: 1.39
log 95% CI lower limit [2, 31]: 1.16
log 95% CI upper limit [2, 31]: 1.59
log 95% CI lower limit [2, 32]: 1.38
log 95% CI upper limit [2, 32]: 1.79

NCCCCCNC(=O)CCCC[C@@H]1SC[C@@H]2NC(=O)N[C@@H]21 [5-BP, 5‐biotinamido‐pentylamine]
IC50 ([1]; DQ2.5-glia-ω2, Figure 5): 60.7 µM
IC50 ([1]; DQ2.5-glia-ω2, mean): 27 µM
IC50 [1, 3]: 13.6 µM
IC50 [1, 4]: 6.79 µM
logIC50 ([1]; DQ2.5-glia-ω2, Figure 5): 1.78
logIC50 ([1]; DQ2.5-glia-ω2, mean): 1.25
logIC50 [1, 3]: 1.13
logIC50 [1, 4]: 0.832
log 95% CI lower limit [1, 5]: 1.52
log 95% CI upper limit [1, 5]: 2.04
log 95% CI lower limit ([1]; logIC50, DQ2.5-glia-ω2, mean): 1.23
log 95% CI upper limit ([1]; logIC50, DQ2.5-glia-ω2, mean): 1.57
log 95% CI lower limit [1, 6]: 0.940
log 95% CI upper limit [1, 6]: 1.32
log 95% CI upper limit [1, 7]: 1.36
IC50 [2, 8]: 22.7 µM
IC50 [2, 9]: 42 µM
IC50 [2, 10]: 57.9 µM
IC50 [2, 11]: 45.4 µM
IC50 [2, 12]: 20.7 µM
IC50 [2, 13]: 72 µM
IC50 [2, 14]: 130 µM
IC50 ([2]; 10 min, inhibition of FITC-ω2 (5 µM) uptake, TG2 3 µg/mL, 2 mM CaCl2, RPMI, 37°C 10 min, replicate Figure S4 B (for spermine not included in the mean), read-out: IC50): 65.6 µM
IC50 [2, 15]: 26 to 72 µM
logIC50 [2, 16]: 1.36
logIC50 [2, 17]: 1.59
logIC50 [2, 18]: 1.66
logIC50 [2, 19]: 1.32
logIC50 [2, 20]: 1.75
logIC50 [2, 21]: 2.11
logIC50 [2, 22]: 1.82
log 95% CI lower limit [2, 23]: 1.04
log 95% CI upper limit [2, 23]: 1.71
log 95% CI lower limit [2, 24]: 1.35
log 95% CI upper limit [2, 24]: 1.85
log 95% CI lower limit [2, 25]: 1.52
log 95% CI upper limit [2, 25]: 2.00
log 95% CI lower limit [2, 26]: 1.50
log 95% CI upper limit [2, 26]: 1.82
log 95% CI lower limit [2, 30]: 1.09
log 95% CI upper limit [2, 30]: 1.57
log 95% CI lower limit [2, 31]: 1.48
log 95% CI upper limit [2, 31]: 2.03
log 95% CI lower limit [2, 32]: 1.86
log 95% CI upper limit [2, 32]: 2.38
log 95% CI lower limit [2, 33]: 1.50
log 95% CI upper limit [2, 33]: 2.14
